Reference: paper PMC11141866, “Pyrimidine depletion enhances targeted and immune therapy combinations in acute myeloid leukemia” (JCI Insight, 2024)
Values joined by “and” are separate entries in the source; they are usually repeats but may differ in a detail not shown here. Identical values can stand only once.

Experiments:
[1] = HOSU-53 plasma exposure in MOLM-13 tumor-bearing mice; assay type: in vivo, NCG mice; settings: 10 mpk PO, female mice, per mouse, 10 mg/kg
[2] = system: MOLM-13 disseminated CDX AML model; test: MOLM-13 CDX multiple ascending dose study; assay type: in vivo
Excerpt: (§1) Male 8- to 12-week-old NCG mice (NOD-Prkdc^em26Cd52Il2rg^em26Cd22/NjuCrl, Charles River) were engrafted with 1 × 10^5 cells via tail vein i.v. injection. Four days after engraftment (day 1 of treatment), mice (n = 10/arm) were randomized to receive p.o. qd vehicle (40% HPβCD) or ascending doses of oral HOSU-53.

[3] = MOLM-13 CDX multiple ascending dose study; assay type: in vivo; settings: male, mouse, in vivo, po; daily p.o., MOLM-13 CDX NCG mice; read-out: maximum tolerated dose (MTD), daily dose
Excerpt: as §1

[4] = system: MOLM-13; test: MTS proliferation assay, MOLM-13; assay type: cell-based; settings: Homo sapiens; MOLM-13, 96-hour treatment; read-out: IC50 (MTS proliferation)
Protocol: (§2) A total of 10,000–20,000 cells from different AML lines or 50,000–75,000 cells of primary AML blasts were treated in a 96-well plate for 72 hours or 96 hours at 37°C, 5% CO2. CellTiter 96 Aqueous MTS reagent (Promega) was added to cells followed by a 3-hour incubation at 37°C, 5% CO2. The absorbance was measured at 490 nm using DTX 880 plate reader, and the IC50 was calculated using GraphPad Prism.

[5] = system: primary AML patient samples; test: Flow cytometry viability, primary AML long-term culture; assay type: cell-based, human
Protocol: (§3) Cells were thawed in 50% FBS RPMI and then cultured in StemSpan (StemCell Technologies) media supplemented with human FLT3L, SCF, GM-CSF, G-CSF, IL-3, IL-6, TPO, and EPO cytokines for 7 days (LTC).
(§4) After 72 hours or 7 days of treatment of DHODHi, cells were collected and washed with PBS, blocked with human Fc block (BioLegend), and stained with antibodies for 30 minutes on ice. Antibodies were washed off and cells resuspended in FACS buffer (2% FBS, 2 mM NaN3, Dulbecco’s PBS) for analysis using BD LSRFortessa or Cytek Aurora spectral flow cytometer. Live/dead exclusion was done using LIVE/DEAD Fixable Near-IR (Invitrogen). All antibodies were purchased from BioLegend except CD47, which was purchased from BD Biosciences: CD11b clone M1/70, CD38 clone HIT2, CD14 clone M5E2, CD47 clone B6H12, CD33 clone WM53, CD3 clone UCHT1, CD19 clone HIB19, and CD45 clone HI30.
(§5) Supplemental Figure S.2. […] A).
Flow cytometry analysis of viable primary AML patient samples (n=10) treated in vitro for seven days
(long term culture, LTC). […]

[6] = system: primary AML patient sample; test: Flow cytometry CD11b/CD14 differentiation, primary AML long-term culture; assay type: cell-based, human; settings: 7 days LTC
Protocol: as §3, §4, §5
Flow cytometry analysis of viable primary AML patient samples (n=10) treated in vitro for seven days (long term culture, LTC). Live cells were measured using LIVE/DEAD™ Fixable Near-IR (NIR) gated on singlet cells. […] Images were taken using BioTek Cytation 5 Cell Imaging Multimode Reader at 20x magnification. […]

[7] = system: U937; test: MTS proliferation assay, U937; assay type: cell-based; settings: Homo sapiens, U-937; U937, 96-hour treatment; read-out: IC50 (MTS proliferation)
Protocol: as §2

[8] = molecular target: CYP 2C19 (Homo sapiens, UniProt P33261); test: CYP inhibition 2C19; assay type: in vitro ADME
CYP 2C19, sequence (P33261 whole entry): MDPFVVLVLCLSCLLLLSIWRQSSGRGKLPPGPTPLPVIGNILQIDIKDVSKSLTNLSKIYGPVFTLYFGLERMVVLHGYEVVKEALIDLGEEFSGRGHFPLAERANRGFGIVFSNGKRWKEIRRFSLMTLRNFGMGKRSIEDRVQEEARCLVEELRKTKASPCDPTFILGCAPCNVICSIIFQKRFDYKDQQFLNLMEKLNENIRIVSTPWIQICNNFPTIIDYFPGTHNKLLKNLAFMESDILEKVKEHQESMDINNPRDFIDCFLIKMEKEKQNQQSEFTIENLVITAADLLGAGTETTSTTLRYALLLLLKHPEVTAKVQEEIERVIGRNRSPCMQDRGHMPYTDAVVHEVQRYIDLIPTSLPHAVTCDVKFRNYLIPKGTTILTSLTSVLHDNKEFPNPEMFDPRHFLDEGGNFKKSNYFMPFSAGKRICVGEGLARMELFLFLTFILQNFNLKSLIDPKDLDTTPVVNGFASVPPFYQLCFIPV
Excerpt: (§6) Supplement jciinsight-9-173646-s083.xlsx, sheet "Supplemental Table S.2." | column: HOSU-53

[9] = LogD; assay type: physicochemical; settings: pH 7.4
Excerpt: as §6

[10] = system: primary AML patient samples; test: Flow cytometry CD47 surface expression, primary AML samples; assay type: cell-based, human; settings: 50nM
Protocol: as §3, §4
Supplemental Figure S.8. DHODHi modulates CD47 surface antigen expression. A) Representative flow cytometry overlay histogram plot for CD47 surface expression in MV4-11 cell line following a 72- […]
supplementation (experiment was done five independent times). B) Flow cytometry analysis of CD47 surface expression in primary AML patient samples (n=8-10) treated in vitro for seven days (long term culture, LTC). Data is shown as mean florescent intensity (MFI) of CD47 gated on live CD45+CD3-CD19- cells, error bars indicate mean with 95% confidence interval. C) Representative flow cytometry […]
modulation of CD47 post DHODHi treatment.
(§7) (1 picture or pasted object on this page, not shown here)

[11] = system: panel of approximately 450 human kinases; test: KINOMEscan profiling; assay type: binding; settings: 10 μM
Protocol: Supplemental Figure S.1. HOSU-53 KINOMEscan™ Profiling. Eurofins DiscoverX KINOMEscan®
Profiling was conducted using 10 μM HOSU-53 to investigate the presence of any off-target kinase
as §7

[12] = system: plasma DHO; test: DHO plasma accumulation in MOLM-13 tumor-bearing mice; assay type: in vivo, NCG mice; design: unit not given here; settings: 10 mpk PO, female mice, per mouse, 10 mg/kg

CCCCOc1cccc(-c2ccc(-c3cc(C(=O)O)c4cc(F)ccc4n3)cc2)c1 [HOSU-53]
HOSU-53 AUCall ([1]; Day 1): 2462.63 µM·h and 1961.3 µM·h | HOSU-53 AUCall ([1]; Day 14): 3818.57 µM·h and 3432.74 µM·h | survival advantage vs vehicle ([2]; 1 mg/kg daily p.o., P < 0.05): modest yet significant survival advantage | tolerability ([2]; 10 mg/kg daily p.o.): well tolerated | tolerability ([2]; 30 mg/kg daily p.o., after 13 days of treatment): dose-limiting weight loss | tolerability ([2]; 100 mg/kg daily p.o.): toxic | Survival, day at event (per animal) ([2]; 0.1 mpk qd p.o.): 18 days and 17 days and 16 days | Survival, day at event (per animal) ([2]; 1 mpk qd p.o.): 22 days and 25 days and 21 days and 23 days | Survival, day at event (per animal) ([2]; 10 mpk qd p.o.): 63 days and 62 days and 48 days and 58 days and 61 days and 32 days and 57 days | Survival, day at event (per animal) ([2]; 30 mpk qdx13, holiday, 20 mpk qd start day 18, flag 0 = censored): 63 days and 15 days and 65 days and 14 days and 71 days and 67 days and ≥ 74 days | Survival, day at event (per animal) ([2]; 100 mpk qdx6): 10 days and 9 days | MTD [3]: 10 to 20 mg/kg | IC50 [4]: 13 nM | % Live (Near-IR negative) ([5]; Pt.12, 50nM, DMSO 56.46): 60.99% | % Live (Near-IR negative) ([5]; Pt.12, 100nM, DMSO 56.46): 59.36% | % Live (Near-IR negative) ([5]; Pt.13, 50nM, DMSO 72.92): 72.53% | % Live (Near-IR negative) ([5]; Pt.13, 100nM, DMSO 72.92): 66.43% | % Live (Near-IR negative) ([5]; Pt.14, 50nM, DMSO 68.39): 70.9% | % Live (Near-IR negative) ([5]; Pt.14, 100nM, DMSO 68.39): 55.21% | % Live (Near-IR negative) ([5]; Pt.15, 50nM, DMSO 61.7): 41.58% | % Live (Near-IR negative) ([5]; Pt.15, 100nM, DMSO 61.7): 27.92% | % Live (Near-IR negative) ([5]; Pt.16, 50nM, DMSO 45.99): 41.34% | % Live (Near-IR negative) ([5]; Pt.16, 100nM, DMSO 45.99): 32.16% | % Live (Near-IR negative) ([5]; Pt.17, 50nM, DMSO 29.84): 29.21% | % Live (Near-IR negative) ([5]; Pt.17, 100nM, DMSO 29.84): 25.94% | % Live (Near-IR negative) ([5]; Pt.18, 50nM, DMSO 29.72): 26.96% | % Live (Near-IR negative) ([5]; Pt.18, 100nM, DMSO 29.72): 23.34% | % Live (Near-IR negative) ([5]; Pt.19, 50nM, DMSO 75.66): 74.9% | % Live (Near-IR negative) ([5]; Pt.19, 100nM, DMSO 75.66): 58.74% | % Live (Near-IR negative) ([5]; Pt.20, 50nM, DMSO 67.67): 44.64% | % Live (Near-IR negative) ([5]; Pt.20, 100nM, DMSO 67.67): 42.59% | % Live (Near-IR negative) ([5]; Pt.2, 50nM, DMSO 78.52): 59.04% | % Live (Near-IR negative) ([5]; Pt.2, 100nM, DMSO 78.52): 32.63% | cell viability ([5]; primary AML samples, 7 days LTC): reduced cell viability | CD11b+CD14+ cells [6]: increased | IC50 [7]: 33 nM | IC50 [8]: 28000 nM | logD [9]: 4.36 | CD47 MFI ([10]; Pt.12, DMSO 1559.17): 2087.23 | CD47 MFI ([10]; Pt.13, DMSO 1665.27): 1161.83 | CD47 MFI ([10]; Pt.14, DMSO 585.79): 749.14 | CD47 MFI ([10]; Pt.15, DMSO 1002.16): 904.23 | CD47 MFI ([10]; Pt.16, DMSO 1349.33): 1418.1 | CD47 MFI ([10]; Pt.17, DMSO 334.61): 360.19 | CD47 MFI ([10]; Pt.18, DMSO 869.17): 1060.36 | CD47 MFI ([10]; Pt.19, DMSO 364.4): 532.16 | CD47 MFI ([10]; Pt.20, DMSO 398.54): 525.38 | CD47 MFI ([10]; Pt.2, DMSO 446.9): 436.9 | alternative-target activity against kinase panel [11]: lack of alternative-target activity | DHO AUC (Figure 3C y value) ([12]; Day 1): 242.955 and 321.59 and 315.332 | DHO AUC (Figure 3C y value) ([12]; Day 14): 411.662 and 445.373 and 347.096
